Results as given in patent US9469630B2, “Sustained-release formulation for injection” (SUMITOMO DAINIPPON PHARMA CO., LTD., priority 2010, dated 2016).

Assay: Solubility in water
Format: physicochemical

In the case of `Cl.O=C1[C@@H]2[C@H]3CC[C@H](C3)[C@@H]2C(=O)N1C[C@@H]1CCCC[C@H]1CN1CCN(c2nsc3ccccc23)CC1` [Compound 1, N-[4-[4-(1,2-benzisothiazol-3-yl)-1-piperazinyl]-(2R,3R)-2,3-tetramethylene-butyl]-(1′R,2′S,3′R,4′S)-2,3-bicyclo[2,2,1]heptanedicarboximide hydrochloride], the solubility in water is reported as “low”.
